In patent publication US8981111B2 (priority 2008, dated 2015):

Experiment: log P (HPLC/MS data of the preparation examples)
Conditions: LC-MS, method [b]: pH 2.7 with 0.1% formic acid in water and acetonitrile, linear gradient 10% to 95% acetonitrile

| Structure (SMILES) | log p |
| --- | --- |
| Cn1cncc1C(=NOCc1nccc(NC(=O)C(C)(C)C)n1)c1ccccc1 [Example 99] | 1.76^[b] |
| Cn1ncnc1C(=NOCc1csc(NC(=O)C(C)(C)C)n1)c1ccccc1 [Example 101] | 2.92^[b] |
| Cn1c(C(=NOCc2nccc(NC(=O)C(C)(C)C)n2)c2ccccc2)cnc1C(=O)C(C)(C)C [Example 102] | 4.84^[b] |
| CC(C)C=C(OC(=O)CC(C)C)c1ncc(C(=NOCc2nccc(NC(=O)CC(C)C)n2)c2ccccc2)n1C [Example 103] | 4.04^[b] |
| Cn1cncc1C(=NOCc1nccc(N(C(=O)C2CC2)C(=O)C2CC2)n1)c1ccccc1 [Example 104] | 1.75^[b] |
| CCCCCCCOC(=O)Nc1cccc(CON=C(c2ccccc2)c2ncnn2C)n1 [Example 106] | 4.86^[b] |
| Cn1ncnc1C(=NOCc1cccc(NC(=O)CCc2ccccc2)n1)c1ccccc1 [Example 107] | 3.33^[b] |
| CC(C)C(=O)Nc1ccnc(CON=C(c2ccccc2)c2cnc(C(=O)C(C)C)n2C)n1 [Example 109] | 3.62^[b] |
| CC(C)=C(OC(=O)C(C)C)c1ncc(C(=NOCc2nccc(NC(=O)C(C)C)n2)c2ccccc2)n1C [Example 110] | 2.77^[b] |
| Cn1cncc1C(=NOCc1csc(N)n1)c1ccccc1 [Example 111] | 0.69^[b] |
| CC(C)CC(=O)Nc1ccnc(CON=C(c2ccccc2)c2cncn2C)n1 [Example 112] | 1.99^[b] |
| CCCCCOC(=O)N(C)c1cccc(CON=C(c2ccccc2)c2ncnn2C)n1 [Example 113] | 4.39^[b] |
| CCCCCOC(=O)Nc1ccnc(CON=C(c2ccccc2)c2cncn2C)n1 [Example 115] | 2.66^[b] |
| CCCCCC(=O)Nc1nc(CON=C(c2ccccc2)c2cncn2C)cs1 [Example 116] | 2.08^[b] |
| Cn1cncc1C(=NOCc1csc(NC(=O)C(C)(C)C)n1)c1ccccc1 [Example 117] | 1.84^[b] |
| CC(C)CC(=O)Nc1nc(CON=C(c2ccccc2)c2cncn2C)cs1 [Example 118] | 1.84^[b] |

| Structure (SMILES) | log p |
| --- | --- |
| CC(C)C(=O)Nc1nc(CON=C(c2ccccc2)c2cncn2C)cs1 [Example 119] | 1.63^[b] |
| CCCCCC(=O)Nc1cccc(CON=C(c2ccccc2)c2cncn2C)n1 [Example 120] | 2.11^[b] |
| CC(C)CC(=O)Nc1cccc(CON=C(c2ccccc2)c2cncn2C)n1 [Example 121] | 1.84^[b] |
| CC(C)C(=O)Nc1ccnc(CON=C(c2ccccc2)c2cncn2C)n1 [Example 124] | 1.49^[b] |
| CC(C)C(=O)Nc1cccc(CON=C(c2ccccc2)c2cncn2C)n1 [Example 125] | 1.63^[b] |
| Cn1cncc1C(=NOCc1csc(NC(=O)COc2ccccc2)n1)c1ccccc1 [Example 127] | 2.01^[b] |
| CCCCC(=O)Nc1ccnc(CON=C(c2ccccc2)c2cncn2C)n1 [Example 128] | 1.75^[b] |
| CCCC(=O)Nc1ccnc(CON=C(c2ccccc2)c2cncn2C)n1 [Example 129] | 1.5^[b] |
| CCCCCCC(=O)Nc1ccnc(CON=C(c2ccccc2)c2cncn2C)n1 [Example 130] | 2.2^[b] |
| CCCCCCCCCC(=O)Nc1ccnc(CON=C(c2ccccc2)c2cncn2C)n1 [Example 131] | 2.98^[b] |
| Cn1cncc1C(=NOCc1nccc(NC(=O)COc2ccccc2)n1)c1ccccc1 [Example 132] | 1.86^[b] |
| Cn1ccnc1C(=NOCc1csc(N)n1)c1ccccc1 [Example 133] | 0.75^[b] |
| Cn1ncnc1C(=NOCc1cccc(CNC(=O)CCc2ccccc2)n1)c1ccccc1 [Example 134] | 2.56^[b] |
| CCCCC(=O)NCc1cccc(CON=C(c2ccccc2)c2ncnn2C)n1 [Example 135] | 2.28^[b] |
| CC(C)CC(=O)NCc1cccc(CON=C(c2ccccc2)c2ncnn2C)n1 [Example 136] | 2.23^[b] |
| Cn1ncnc1C(=NOCc1cccc(CNC(=O)C(C)(C)C)n1)c1ccccc1 [Example 137] | 2.28^[b] |

Same assay, conditions: method [b]: LC-MS at pH 2.7, 0.1% formic acid in water / acetonitrile, linear gradient 10% to 95% acetonitrile

| Structure (SMILES) | log p |
| --- | --- |
| Cn1ncnc1C(=NOCc1cccc(CNC(=O)Cc2ccccc2)n1)c1ccccc1 [Example 138] | 2.44^[b] |
| CCCCCC(=O)NCc1cccc(CON=C(c2ccccc2)c2ncnn2C)n1 [Example 140] | 2.62^[b] |
| CCCCOC(=O)NCc1cccc(CON=C(c2ccccc2)c2ncnn2C)n1 [Example 141] | 2.84^[b] |
| Cn1nc(C(=NOCc2cccc(N3C(=O)c4ccccc4C3=O)n2)c2ccccc2)n(C)c1=O [Example 142] | 2.66^[b] |
| Cn1cnnc1C(=NOCc1cccc(N2C(=O)c3ccccc3C2=O)n1)c1ccccc1 [Example 144] | 2.3^[b] |
| CCCCCOC(=O)Nc1cccc(CON=C(c2ccccc2)c2nn(C)c(=O)n2C)n1 [Example 146] | 3.8^[b] |
| Cn1nc(C(=NOCc2cccc(NC(=O)C(C)(C)C)n2)c2ccccc2)n(C)c1=O [Example 147] | 2.86^[b] |
| CC(C)CC(=O)Nc1cccc(CON=C(c2ccccc2)c2nn(C)c(=O)n2C)n1 [Example 148] | 2.82^[b] |
| Cn1nc(C(=NOCc2cccc(NC(=O)Cc3ccccc3)n2)c2ccccc2)n(C)c1=O [Example 149] | 2.94^[b] |
| Cn1nc(C(=NOCc2cccc(NC(=O)CCc3ccccc3)n2)c2ccccc2)n(C)c1=O [Example 150] | 3.19^[b] |
| Cn1nc(C(=NOCc2cccc(NC(=O)CC(F)(F)F)n2)c2ccccc2)n(C)c1=O [Example 151] | 2.66^[b] |
| Cn1nc(C(=NOCc2cccc(NC(=O)c3cccs3)n2)c2ccccc2)n(C)c1=O [Example 152] | 2.82^[b] |
| Cn1nc(C(=NOCc2cccc(NC(=O)CCC3CCCC3)n2)c2ccccc2)n(C)c1=O [Example 153] | 3.71^[b] |
| Cn1ccnc1C(=NOCc1nccc(NC(=O)C2CC2)n1)c1ccccc1 [Example 154] | 1.5^[b] |
| Cn1ccnc1C(=NOCc1nccc(NC(=O)Cc2ccccc2)n1)c1ccccc1 [Example 155] | 2.01^[b] |
| Cn1cnnc1C(=NOCc1cccc(N)n1)c1ccccc1 [Example 156] | 0.88^[b] |
| CCCCCOC(=O)Nc1cccc(CON=C(c2ccccc2)c2nncn2C)n1 [Example 157] | 3.29^[b] |
| Cn1cnnc1C(=NOCc1cccc(NC(=O)Cc2ccccc2)n1)c1ccccc1 [Example 158] | 2.56^[b] |
| CC(C)COC(=O)Nc1cccc(CON=C(c2ccccc2)c2nncn2C)n1 [Example 159] | 2.88^[b] |
| Cn1cnnc1C(=NOCc1cccc(NC(=O)CC(F)(F)F)n1)c1ccccc1 [Example 160] | 2.28^[b] |
| Cn1ncnc1C(=NOCc1cccc(CN2C(=O)c3ccccc3C2=O)n1)c1ccccc1 [Example 161] | 2.9^[b] |
| Cn1ncnc1C(=NOCc1cccc(CN)n1)c1ccccc1 [Example 162] | 0.99^[b] |
| Cc1cccc(C(=NOCc2cccc(N)n2)c2ncnn2C)c1 [Example 164] | 1.08^[b] |
| Cn1nncc1C(=NOCc1csc(N)n1)c1ccccc1 [Example 165] | 1.29^[b] |

| Structure (SMILES) | log p |
| --- | --- |
| Cn1ccnc1C(=NOCc1nccc(NC(=O)C(C(=O)Cc2ccccc2)c2ccccc2)n1)c1ccccc1 (stereo not shown) [Example 166] | 2.59^[b] |
| Cn1cnnc1C(=NOCc1cccc(NC(=O)C(C)(C)C)n1)c1ccccc1 [Example 167] | 2.44^[b] |
| Cc1nc(C(=NOCc2cccc(NC(=O)C(C)(C)C)n2)c2ccccc2)cs1 [Example 172] | 3.56^[b] |
| Cn1nc(C(F)(F)F)nc1C(=NOCc1cccc(NC(=O)Cc2ccccc2)n1)c1ccccc1 [Example 175] | 4.24^[b] |
| Cn1nc(C(F)(F)F)nc1C(=NOCc1cccc(NC(=O)CCc2ccccc2)n1)c1ccccc1 [Example 176] | 4.49^[b] |
| CC(C)CC(=O)Nc1cccc(CON=C(c2ccccc2)c2nc(C(F)(F)F)nn2C)n1 [Example 177] | 4.24^[b] |
| Cn1nc(C(F)(F)F)nc1C(=NOCc1cccc(NC(=O)C(C)(C)C)n1)c1ccccc1 [Example 178] | 4.31^[b] |
| CCCCCOC(=O)Nc1cccc(CON=C(c2ccccc2)c2nc(C(F)(F)F)nn2C)n1 [Example 179] | 5.2^[b] |
| CC(C)COC(=O)Nc1cccc(CON=C(c2ccccc2)c2nc(C(F)(F)F)nn2C)n1 [Example 180] | 4.78^[b] |
| Cn1nc(C(F)(F)F)nc1C(=NOCc1cccc(N)n1)c1ccccc1 [Example 181] | 1.97^[b] |
| CCCCCC(=O)Nc1cccc(CON=C(c2ccccc2)c2nc(C(F)(F)F)nn2C)n1 [Example 182] | 4.67^[b] |
| Cn1nc(C(F)(F)F)nc1C(=NOCc1cccc(N2C(=O)c3ccccc3C2=O)n1)c1ccccc1 [Example 183] | 3.99^[b] |
| Cn1nc(C(F)(F)F)nc1C(=NOCc1cccc(NC(=O)C2CCCC2)n1)c1ccccc1 [Example 184] | 4.41^[b] |
| CC(=O)OCCCCOC(=O)Nc1cccc(CON=C(c2ccccc2)c2nc(C(F)(F)F)nn2C)n1 [Example 185] | 4.11^[b] |
| Cc1cc(C(F)(F)F)nn1CC(=O)Nc1cccc(CON=C(c2ccccc2)c2nc(C(F)(F)F)nn2C)n1 [Example 186] | 4.31^[b] |
| CCCCCOC(=O)Nc1cccc(CON=C(c2ccccc2)c2csc(C)n2)n1 [Example 187] | 4.51^[b] |
| Cn1c(C(=NOCc2cccc(N3C(=O)c4ccccc4C3=O)n2)c2ccccc2)nnc1C(F)(F)F [Example 192] | 3.31^[b] |
| Cc1ncc(C(=NOCc2cccc(N3C(=O)c4ccccc4C3=O)n2)c2ccccc2)n1C [Example 194] | 1.84^[b] |
| CCCCCOC(=O)Nc1cccc(CON=C(c2ccccc2)c2csc(C)n2)n1 [Example 195] | 4.92^[b] |
| CCCCCC(=O)Nc1cccc(CON=C(c2ccccc2)c2nnc(C(F)(F)F)n2C)n1 [Example 196] | 3.94^[b] |
| CCCCCOC(=O)Nc1cccc(CON=C(c2ccccc2)c2nnc(C(F)(F)F)n2C)n1 [Example 197] | 4.49^[b] |
| Cn1c(C(=NOCc2cccc(NC(=O)C(C)(C)C)n2)c2ccccc2)nnc1C(F)(F)F [Example 198] | 3.58^[b] |
| Cn1c(C(=NOCc2cccc(NC(=O)Cc3ccccc3)n2)c2ccccc2)nnc1C(F)(F)F [Example 200] | 3.6^[b] |
